# Reference: US10183938B2, “Geminal substituted quinuclidine amide compounds as agonists of α-7 nicotonic acetylcholine receptors” (AXOVANT SCIENCES GMBH, priority 2014, dated 2019)
# Structures can show the parent of a compound that is named as a salt.
# Target: human α7 nAChRs transiently expressed in Xenopus laevis oocytes (Homo sapiens (Human), UniProt P36544)
# Assay: Oocyte electrophysiology screen (TEVC)
# Type: cell-based
# Details: 0.01 mM test compound, peak current relative to 0.2 mM ACh
# Outline: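 Oocytes expressing human α7 were clamped at −80 mV by TEVC. After a 0.2 mM ACh control pulse, test compound was applied at 0.01 mM for 30 s. Agonist response is peak current as % of the ACh response, in triplicate.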
# Sequence of human α7 nAChRs transiently expressed in Xenopus laevis oocytes (P36544 23-502 limits assumed): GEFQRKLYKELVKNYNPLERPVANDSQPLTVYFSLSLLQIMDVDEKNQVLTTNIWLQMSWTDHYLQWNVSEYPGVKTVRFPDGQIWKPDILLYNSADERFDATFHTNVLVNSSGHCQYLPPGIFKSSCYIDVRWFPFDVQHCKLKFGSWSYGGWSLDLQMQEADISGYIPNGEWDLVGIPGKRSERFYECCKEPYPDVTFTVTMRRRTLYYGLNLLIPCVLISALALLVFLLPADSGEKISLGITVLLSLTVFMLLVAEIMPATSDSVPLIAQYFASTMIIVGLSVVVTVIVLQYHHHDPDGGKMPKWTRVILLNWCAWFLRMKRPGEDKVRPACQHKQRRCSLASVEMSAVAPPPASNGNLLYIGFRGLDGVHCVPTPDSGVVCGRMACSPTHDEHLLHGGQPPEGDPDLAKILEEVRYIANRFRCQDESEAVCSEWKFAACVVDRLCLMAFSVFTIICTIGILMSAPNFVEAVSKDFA
row,Compound,% ACh @ 10 μM Oocyte [% ACh]
1,"CC1(C)[C@@H](NC(=O)c2cc3cccc(C(F)(F)F)c3s2)C2CCN1CC2 [(S)-7, (S)—N-(2,2-dimethylquinuclidin-3-yl)-7-(trifluoromethyl)benzo[b]thiophene-2-carboxamide hydrochloride]",2
2,"CC(C)Oc1ccc2cc(C(=O)N[C@@H]3C4CCN(CC4)C34CC4)sc2c1 [(R)-102, (R)-6-isopropoxy-N-(1′-azaspiro[cyclopropane-1,2′-bicyclo[2.2.2]octan]-3′-yl)benzo[b]thiophene-2-carboxamide hydrochloride]",1
3,"CC1(C)[C@H](NC(=O)c2nc3ccccc3s2)C2CCN1CC2 [(R)-29, (R)—N-(2,2-dimethylquinuclidin-3-yl)benzo[d]thiazole-2-carboxamide hydrochloride]",448
4,"Cl.Cn1c(C(=O)N[C@@H]2C3CCN(CC3)C23CC3)cc2ccccc21 [(R)-254, (R)-1-methyl-N-(1′-azaspiro[cyclopropane-1,2′-bicyclo[2.2.2]octan]-3′-yl)-1H-indole-2-carboxamide hydrochloride]",447
5,"(R)-N-(2,2-dimethylquinuclidin-3-yl)-6-(trifluoromethoxy)benzo[b]thiophene-2-carboxamide hydrochloride [(R)-209]",1
6,"O=C(NC1C2CCN(CC2)C12CC2)c1cc2ccc(F)cc2s1 (single isomer, unassigned; enantiomer2) [61b, 6-fluoro-N-(1′-azaspiro[cyclopropane-1,2′-bicyclo[2.2.2]octan]-3′-yl)benzo[b]thiophene-2-carboxamide-enantiomer2]",1
7,"Cc1nc2cc(C(=O)N[C@@H]3C4CCN(CC4)C3(C)C)ccc2o1 [(R)-32, (R)—N-(2,2-dimethylquinuclidin-3-yl)-2-methylbenzo[d]oxazole-5-carboxamide]",61
8,"O=C(N[C@@H]1C2CCN(CC2)C12CC2)c1cnn2ncccc12 [(R)-80, (R)—N-(1′-azaspiro[cyclopropane-1,2′-bicyclo[2.2.2]octan]-3′-yl)pyrazolo[1,5-b]pyridazine-3-carboxamide hydrochloride]",0
9,"CC(C)Oc1ccc2cc(C(=O)N[C@@H]3C4CCN(CC4)C3(C)C)sc2c1 [(R)-47, (R)—N-(2,2-dimethylquinuclidin-3-yl)-6-isopropoxybenzo[b]thiophene-2-carboxamide hydrochloride]",1
10,"CC1(C)[C@H](NC(=O)c2ccc3cc[nH]c3c2)C2CCN1CC2 [(R)-26, (R)—N-(2,2-dimethylquinuclidin-3-yl)-1H-indole-6-carboxamide hydrochloride]",687
11,"Cn1cnc2ccc(C(=O)N[C@@H]3C4CCN(CC4)C34CC4)cc21 [(R)-96, (R)-1-methyl-N-(1′-azaspiro[cyclopropane-1,2′-bicyclo[2.2.2]octan]-3′-yl)-1H-benzo[d]imidazole-6-carboxamide hydrochloride]",0

# Same assay, conditions: 0.01 mM test compound, peak current relative to 0.2 mM ACh; hydrochloride
row,Compound,% ACh @ 10 μM Oocyte [% ACh]
1,"Nc1ccc2cc(C(=O)NC3C4CCN(CC4)C34CC4)sc2c1 (single isomer, unassigned; enantiomer1) [62a, 6-amino-N-(1′-azaspiro[cyclopropane-1,2′-bicyclo[2.2.2]octan]-3′-yl)benzo[b]thiophene-2-carboxamide-enantiomer1 hydrochloride]",35
2,"COc1ccc2cc(C(=O)NC3C4CCN(CC4)C34CC4)sc2c1 (single isomer, unassigned; enantiomer1) [73a, 6-methoxy-N-(1′-azaspiro[cyclopropane-1,2′-bicyclo[2.2.2]octan]-3′-yl)benzo[b]thiophene-2-carboxamide-enantiomer1 hydrochloride]",1036
3,"O=C(NC1C2CCN(CC2)C12CC2)c1cc2ccc(C3CC3)cc2s1 (single isomer, unassigned; enantiomer1) [71a, 6-cyclopropyl-N-(1′-azaspiro[cyclopropane-1,2′-bicyclo[2.2.2]octan]-3′-yl)benzo[b]thiophene-2-carboxamide-enantiomer1 hydrochloride]",739
